Literature values in US20040097599A1, “Antibacterial and antifungal compositions based on branched C-11 alcohols” (priority 2001, published 2004).
≈ marks a conversion by molar mass, not a printed value.

Tested on: Streptococcus mutans
Conditions: towards Streptococcus mutans; J. Agric. Food Chem. 1993, 41, 2447-2450

| Compound | MIC (Minimum Inhibitory Concentration) [µg/mL] |
| --- | --- |
| CCCCCCCCCCCCO [1-dodecanol] | 6.25 (≈ 33.5 µM) |
| CCCCCCCCCCCCCO [1-tridecanol] | 6.25 (≈ 31.2 µM) |
